Measurements taken from ChEMBL document CHEMBL1201862, “PubChem BioAssay data set” (2004).
Active and inactive are the calls of the source. Rule as the data show it: active = IC50 of 10 µM or less and inactive = more.

Experiments:
[1] = molecular target: Melanin-concentrating hormone receptor 1 (Homo sapiens, UniProt Q99705); assay: Late-stage fluorescence-based counterscreen for antagonists of the G-protein coupled receptor 7 (GPR7): cell-based dose response assay to identify antagonists of the melanin-concentrating hormone receptor 1 (MCHR1) Set 6.; format: functional
Chain of Melanin-concentrating hormone receptor 1 (Q99705 whole entry): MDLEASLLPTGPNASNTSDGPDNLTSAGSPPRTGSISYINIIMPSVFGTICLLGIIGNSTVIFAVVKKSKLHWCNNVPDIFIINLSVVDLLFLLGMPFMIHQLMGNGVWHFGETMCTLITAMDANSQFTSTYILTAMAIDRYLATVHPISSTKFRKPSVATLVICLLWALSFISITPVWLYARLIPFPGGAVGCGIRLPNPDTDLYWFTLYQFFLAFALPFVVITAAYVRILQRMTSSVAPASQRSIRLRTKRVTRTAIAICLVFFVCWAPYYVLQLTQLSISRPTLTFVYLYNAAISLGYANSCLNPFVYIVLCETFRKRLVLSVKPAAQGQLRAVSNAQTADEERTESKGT

[2] = molecular target: T1, Neuropeptides B/W receptor type 1 (Homo sapiens, UniProt P48145); assay: GPR7 antagonist potency, late-stage follow-up, cell-based, fluorescence, dose response, set 6 (AID 588583); format: functional
T1 sequence (P48145 whole entry): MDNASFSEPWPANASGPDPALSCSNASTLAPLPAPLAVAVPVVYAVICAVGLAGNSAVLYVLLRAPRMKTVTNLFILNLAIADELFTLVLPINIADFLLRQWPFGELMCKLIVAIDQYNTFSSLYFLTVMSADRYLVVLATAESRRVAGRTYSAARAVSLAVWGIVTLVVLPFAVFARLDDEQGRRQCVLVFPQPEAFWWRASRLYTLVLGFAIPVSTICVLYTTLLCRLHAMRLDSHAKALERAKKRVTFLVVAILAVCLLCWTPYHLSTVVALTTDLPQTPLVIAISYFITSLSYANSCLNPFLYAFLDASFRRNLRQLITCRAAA

IC50 [1]: > 20 µM (inactive) | IC50 [2]: > 20 µM (inactive)
SMILES: N#CC(c1ccccc1)c1c(S)cnn(Cc2cccc3ccccc23)c1=O (configuration not stated)
